# According to ChEMBL document CHEMBL1208746, “3-Cyano-5-fluoro-N-arylbenzamides as negative allosteric modulators of mGlu(5): Identification of easily prepared tool compounds with CNS exposure in rats” (Bioorg Med Chem Lett, 2010):
# Calls of active or inactive are those of the source. No cut-off for these calls is given here.
# Columns and labels:
# [1] = molecular target: T1, Metabotropic glutamate receptor 5 (Rattus norvegicus, UniProt P31424); assay: Antagonist activity at rat mGlu5 receptor expressed in HEK293A cells assessed as inhibition of glutamate-induced calcium mobilization; type: functional, cell-based, HEK293-A
# [2] = molecular target: Metabotropic glutamate receptor 5 (Rattus norvegicus) (UniProt P31424); assay: Antagonist activity at rat mGlu5 receptor expressed in HEK293A cells assessed as inhibition of glutamate-induced calcium mobilization at 30 uM relative to glutamate; type: functional, cell-based; conditions: HEK293-A
# [3] = molecular target: T1, Metabotropic glutamate receptor 5; assay: Displacement of [3H]methoxy-PEPy from rat mGlu5 receptor expressed in HEK293A cells after 60 mins by scintillation counting; type: cell-based, HEK293-A
# [4] = molecular target: Metabotropic glutamate receptor 1 (Homo sapiens) (UniProt Q13255); assay: Inhibition of mGlu1 receptor at 10 uM
# Chain of Metabotropic glutamate receptor 1 (Homo sapiens) (Q13255 19-1194 limits assumed): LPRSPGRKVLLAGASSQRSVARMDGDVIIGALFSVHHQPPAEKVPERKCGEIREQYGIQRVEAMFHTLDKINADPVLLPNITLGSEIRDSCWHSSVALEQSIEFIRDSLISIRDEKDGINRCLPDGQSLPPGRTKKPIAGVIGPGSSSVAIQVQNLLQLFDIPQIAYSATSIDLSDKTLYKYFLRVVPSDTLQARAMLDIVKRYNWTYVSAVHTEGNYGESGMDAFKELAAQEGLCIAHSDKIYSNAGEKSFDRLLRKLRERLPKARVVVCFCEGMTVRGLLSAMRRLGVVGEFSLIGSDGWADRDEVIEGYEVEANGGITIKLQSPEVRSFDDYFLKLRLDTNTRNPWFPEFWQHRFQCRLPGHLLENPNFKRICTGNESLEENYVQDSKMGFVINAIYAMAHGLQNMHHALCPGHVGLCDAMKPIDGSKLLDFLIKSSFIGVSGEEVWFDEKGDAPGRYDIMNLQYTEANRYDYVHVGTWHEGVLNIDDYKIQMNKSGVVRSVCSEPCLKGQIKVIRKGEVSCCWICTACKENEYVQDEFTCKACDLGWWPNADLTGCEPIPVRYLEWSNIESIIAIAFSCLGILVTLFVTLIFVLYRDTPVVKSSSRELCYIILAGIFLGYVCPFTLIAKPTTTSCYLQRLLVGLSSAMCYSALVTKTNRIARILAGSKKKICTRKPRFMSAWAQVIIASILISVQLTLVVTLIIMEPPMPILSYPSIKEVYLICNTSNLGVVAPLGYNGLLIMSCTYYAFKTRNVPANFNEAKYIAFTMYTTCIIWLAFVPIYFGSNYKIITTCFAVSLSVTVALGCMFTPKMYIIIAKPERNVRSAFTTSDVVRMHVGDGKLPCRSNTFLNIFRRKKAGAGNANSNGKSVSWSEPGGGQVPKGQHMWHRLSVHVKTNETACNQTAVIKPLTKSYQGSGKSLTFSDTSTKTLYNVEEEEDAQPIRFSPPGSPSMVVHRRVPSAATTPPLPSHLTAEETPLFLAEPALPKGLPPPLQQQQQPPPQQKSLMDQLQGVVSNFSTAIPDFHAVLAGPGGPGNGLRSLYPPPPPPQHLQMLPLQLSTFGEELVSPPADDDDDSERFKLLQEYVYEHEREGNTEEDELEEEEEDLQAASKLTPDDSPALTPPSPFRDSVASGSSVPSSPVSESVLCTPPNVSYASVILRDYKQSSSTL
# [5] = molecular target: Metabotropic glutamate receptor 2 (Homo sapiens) (UniProt Q14416); assay: Inhibition of mGlu2 receptor at 10 uM
# [6] = molecular target: Metabotropic glutamate receptor 3 (Homo sapiens) (UniProt Q14832); assay: Inhibition of mGlu3 receptor at 10 uM
# Chain of Metabotropic glutamate receptor 3 (Homo sapiens) (Q14832 23-879 limits assumed): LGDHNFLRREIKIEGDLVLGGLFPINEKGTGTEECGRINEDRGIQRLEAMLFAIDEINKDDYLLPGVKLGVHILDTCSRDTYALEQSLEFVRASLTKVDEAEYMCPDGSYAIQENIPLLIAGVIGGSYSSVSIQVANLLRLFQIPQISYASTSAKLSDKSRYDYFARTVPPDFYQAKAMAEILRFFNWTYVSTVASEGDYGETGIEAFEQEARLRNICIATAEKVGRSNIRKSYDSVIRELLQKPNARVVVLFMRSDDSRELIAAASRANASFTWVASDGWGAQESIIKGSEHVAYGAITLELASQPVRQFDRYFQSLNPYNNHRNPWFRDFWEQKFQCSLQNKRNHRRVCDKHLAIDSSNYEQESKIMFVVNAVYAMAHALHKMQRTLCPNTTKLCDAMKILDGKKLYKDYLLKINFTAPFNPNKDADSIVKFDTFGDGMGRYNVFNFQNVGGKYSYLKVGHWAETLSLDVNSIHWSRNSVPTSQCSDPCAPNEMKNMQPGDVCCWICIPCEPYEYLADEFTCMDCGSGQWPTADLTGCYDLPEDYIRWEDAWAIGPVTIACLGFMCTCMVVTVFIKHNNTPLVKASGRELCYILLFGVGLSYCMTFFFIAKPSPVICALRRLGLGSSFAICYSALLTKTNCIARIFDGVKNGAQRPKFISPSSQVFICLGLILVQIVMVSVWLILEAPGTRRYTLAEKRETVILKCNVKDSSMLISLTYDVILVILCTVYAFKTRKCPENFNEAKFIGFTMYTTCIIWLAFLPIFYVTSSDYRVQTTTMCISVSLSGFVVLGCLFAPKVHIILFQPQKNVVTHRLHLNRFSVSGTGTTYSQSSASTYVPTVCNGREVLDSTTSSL
# [7] = molecular target: Metabotropic glutamate receptor 4 (Homo sapiens) (UniProt Q14833); assay: Inhibition of mGlu4 receptor at 10 uM
# Chain of Metabotropic glutamate receptor 4 (Homo sapiens) (Q14833 whole entry): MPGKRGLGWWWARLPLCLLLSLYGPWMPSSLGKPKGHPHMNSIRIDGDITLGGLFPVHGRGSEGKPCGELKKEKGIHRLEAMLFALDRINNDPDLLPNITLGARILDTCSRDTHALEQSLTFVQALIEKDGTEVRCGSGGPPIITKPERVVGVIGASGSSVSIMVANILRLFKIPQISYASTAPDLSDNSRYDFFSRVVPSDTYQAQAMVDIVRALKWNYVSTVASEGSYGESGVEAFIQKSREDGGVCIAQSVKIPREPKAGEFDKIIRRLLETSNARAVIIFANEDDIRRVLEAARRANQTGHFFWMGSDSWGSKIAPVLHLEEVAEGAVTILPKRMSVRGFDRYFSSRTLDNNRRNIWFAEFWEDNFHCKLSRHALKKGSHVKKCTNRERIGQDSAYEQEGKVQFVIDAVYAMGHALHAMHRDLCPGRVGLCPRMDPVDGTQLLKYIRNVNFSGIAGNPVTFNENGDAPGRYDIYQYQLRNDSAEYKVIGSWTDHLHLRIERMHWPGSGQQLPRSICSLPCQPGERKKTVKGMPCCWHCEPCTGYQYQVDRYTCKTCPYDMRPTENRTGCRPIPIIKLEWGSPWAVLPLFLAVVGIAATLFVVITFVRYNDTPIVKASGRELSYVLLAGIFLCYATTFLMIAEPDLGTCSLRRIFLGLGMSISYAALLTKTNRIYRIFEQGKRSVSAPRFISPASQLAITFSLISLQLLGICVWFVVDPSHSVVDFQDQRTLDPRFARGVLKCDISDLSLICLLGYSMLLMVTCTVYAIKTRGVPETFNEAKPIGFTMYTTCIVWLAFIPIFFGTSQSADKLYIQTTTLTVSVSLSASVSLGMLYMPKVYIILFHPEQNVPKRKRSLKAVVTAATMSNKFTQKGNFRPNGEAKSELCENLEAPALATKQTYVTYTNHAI
# [8] = molecular target: Metabotropic glutamate receptor 7 (Homo sapiens) (UniProt Q14831); assay: Inhibition of mGlu7 receptor at 10 uM
# Chain of Metabotropic glutamate receptor 7 (Homo sapiens) (Q14831 whole entry): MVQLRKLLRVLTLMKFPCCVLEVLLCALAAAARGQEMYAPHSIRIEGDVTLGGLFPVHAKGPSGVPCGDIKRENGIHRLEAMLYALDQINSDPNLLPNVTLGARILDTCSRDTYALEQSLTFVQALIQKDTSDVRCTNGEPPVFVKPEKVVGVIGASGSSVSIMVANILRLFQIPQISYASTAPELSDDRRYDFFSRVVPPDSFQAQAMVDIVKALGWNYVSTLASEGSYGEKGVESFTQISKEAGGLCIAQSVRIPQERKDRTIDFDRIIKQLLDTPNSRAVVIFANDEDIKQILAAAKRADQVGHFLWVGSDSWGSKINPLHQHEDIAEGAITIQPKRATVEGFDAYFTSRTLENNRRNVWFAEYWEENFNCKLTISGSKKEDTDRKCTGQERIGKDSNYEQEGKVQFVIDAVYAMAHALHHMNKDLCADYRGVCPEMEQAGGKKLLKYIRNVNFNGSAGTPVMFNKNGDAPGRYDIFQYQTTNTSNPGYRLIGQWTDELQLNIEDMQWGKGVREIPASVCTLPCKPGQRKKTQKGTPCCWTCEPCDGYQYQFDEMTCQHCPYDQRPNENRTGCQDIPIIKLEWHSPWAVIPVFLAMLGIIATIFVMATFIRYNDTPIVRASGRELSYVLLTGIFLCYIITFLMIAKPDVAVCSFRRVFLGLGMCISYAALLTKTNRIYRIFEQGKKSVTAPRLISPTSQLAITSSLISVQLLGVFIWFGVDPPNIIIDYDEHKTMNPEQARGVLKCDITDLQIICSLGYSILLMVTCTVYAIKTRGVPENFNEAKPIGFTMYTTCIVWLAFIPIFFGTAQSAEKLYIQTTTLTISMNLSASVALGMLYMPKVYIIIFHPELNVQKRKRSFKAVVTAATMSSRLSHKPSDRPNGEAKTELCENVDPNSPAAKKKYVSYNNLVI
# [9] = molecular target: Metabotropic glutamate receptor 8 (Homo sapiens) (UniProt O00222); assay: Inhibition of mGlu8 receptor at 10 uM
# Chain of Metabotropic glutamate receptor 8 (Homo sapiens) (O00222 whole entry): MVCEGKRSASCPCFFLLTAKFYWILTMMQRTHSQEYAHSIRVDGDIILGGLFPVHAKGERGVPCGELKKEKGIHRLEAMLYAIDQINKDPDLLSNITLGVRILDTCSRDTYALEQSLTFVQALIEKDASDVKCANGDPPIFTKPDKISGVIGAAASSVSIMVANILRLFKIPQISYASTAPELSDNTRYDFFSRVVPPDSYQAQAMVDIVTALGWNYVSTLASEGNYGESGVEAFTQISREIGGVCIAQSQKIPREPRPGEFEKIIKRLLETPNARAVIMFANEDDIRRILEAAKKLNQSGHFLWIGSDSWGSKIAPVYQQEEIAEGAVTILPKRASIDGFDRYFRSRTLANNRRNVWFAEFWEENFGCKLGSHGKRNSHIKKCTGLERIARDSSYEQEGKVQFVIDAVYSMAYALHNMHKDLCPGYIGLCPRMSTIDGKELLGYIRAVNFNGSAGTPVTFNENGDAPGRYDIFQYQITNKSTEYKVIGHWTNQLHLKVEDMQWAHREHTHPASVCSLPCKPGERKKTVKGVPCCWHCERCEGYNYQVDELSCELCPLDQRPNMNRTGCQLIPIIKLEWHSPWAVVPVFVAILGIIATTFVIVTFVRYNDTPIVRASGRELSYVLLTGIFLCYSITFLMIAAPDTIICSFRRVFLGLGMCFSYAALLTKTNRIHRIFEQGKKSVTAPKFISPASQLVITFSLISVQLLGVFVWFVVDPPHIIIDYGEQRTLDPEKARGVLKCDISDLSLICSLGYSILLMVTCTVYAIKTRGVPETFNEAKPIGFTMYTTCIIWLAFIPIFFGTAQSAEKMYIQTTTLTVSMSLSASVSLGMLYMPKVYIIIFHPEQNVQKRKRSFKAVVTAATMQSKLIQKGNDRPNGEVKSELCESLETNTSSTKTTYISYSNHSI
# [10] = Metabolic stability in rat liver microsomes assessed as compound remaining at 1 uM after 15 mins in presence of NADPH; type: ADME, Microsome; conditions: read-out: Stability
# [11] = Metabolic stability in human liver microsomes assessed as compound remaining at 1 uM after 15 mins in presence of NADPH; type: ADME, Microsome; conditions: read-out: Stability
# Plasma [12] = assay: Protein binding in rat plasma by rapid equilibrium dialysis method; type: ADME, cell-free
# Plasma [13] = assay: Protein binding in human plasma by rapid equilibrium dialysis method; type: ADME, cell-free
# Plasma [14] = assay: Cmax in Sprague-Dawley rat plasma at 10 mg/kg, ip after 0.25 to 4 hrs; type: ADME, organism-based; set-up: dose 10 mg/kg, route intraperitoneal; conditions: in vivo
# [15] = Cmax in Sprague-Dawley rat brain at 10 mg/kg, ip after 0.25 to 4 hrs; type: ADME, organism-based; set-up: dose 10 mg/kg, route intraperitoneal
# Plasma [16] = assay: Tmax in Sprague-Dawley rat plasma at 10 mg/kg, ip after 0.25 to 4 hrs; type: ADME, organism-based; set-up: dose 10 mg/kg, route intraperitoneal; conditions: in vivo
# Brain = assay: Tmax in Sprague-Dawley rat brain at 10 mg/kg, ip after 0.25 to 4 hrs; type: ADME, organism-based; set-up: dose 10 mg/kg, route intraperitoneal; conditions: in vivo
# [17] = AUC (0-4 hrs) in Sprague-Dawley rat plasma at 10 mg/kg, ip; type: ADME, organism-based; set-up: time < 4 hr, dose 10 mg/kg, route intraperitoneal
# [18] = AUC (0-4 hrs) in Sprague-Dawley rat brain at 10 mg/kg, ip; type: ADME, organism-based; set-up: time < 4 hr, dose 10 mg/kg, route intraperitoneal
# [19] = Ratio of drug level brain to plasma in Sprague-Dawley rat at 10 mg/kg, ip; type: ADME, organism-based; set-up: dose 10 mg/kg, route intraperitoneal; conditions: brain and plasma
SMILES,IC50 [1] [nM],%max [2] [%],also measured
CS(=O)(=O)c1cccc(NC(=O)c2cc(F)cc(C#N)c2)c1,> 30000,,
N#Cc1cc(F)cc(C(=O)Nc2nccs2)c1,> 10000,37.4,
Cc1nc(NC(=O)c2cc(F)cc(C#N)c2)sc1C,594,2.4,
N#Cc1cc(F)cc(C(=O)Nc2cc(F)cc(Cl)c2)c1,1830,38.5,
N#Cc1cc(F)cc(C(=O)Nc2ccc(F)cc2)c1,> 10000,69.2,
N#Cc1cc(F)cc(C(=O)Nc2ccccc2Cl)c1,> 30000,,
Cc1csc(NC(=O)c2cc(F)cc(C#N)c2)n1,59,1,"Ki [3]: 102 nM; inhibition [4]: inactive; inhibition [5]: inactive; inhibition [6]: inactive; inhibition [7]: inactive; inhibition [8]: inactive; inhibition [9]: inactive; remaining at 0.25 h, 1 µM [10]: 89.9%; remaining at 0.25 h, 1 µM [11]: 70.3%; PPB (Plasma [12]): 92.4%; PPB (Plasma [13]): 98.4%; Cmax (Plasma [14]): 7.65 µg/mL; Cmax [15]: 28800 ng/mL; Tmax (Plasma [16]): 15 min; Tmax (Brain): 15 min; AUC(0-t) at 4 h [17]: 17800 ng·h/mL; AUC(0-t) at 4 h [18]: 73000 ng·h/mL; Kp [19]: 4.1"
N#Cc1cc(F)cc(C(=O)Nc2cccc(C(F)(F)F)n2)c1,> 10000,19.6,
Cn1ccc(NC(=O)c2cc(F)cc(C#N)c2)n1,> 10000,46.7,
N#Cc1cc(F)cc(C(=O)Nc2cccc(C(F)(F)F)c2)c1,543,0.9,
C#Cc1cccc(NC(=O)c2cc(F)cc(C#N)c2)c1,331,2.3,
N#Cc1cc(F)cc(C(=O)NC2CCCCC2)c1,> 30000,,
N#Cc1cc(F)cc(C(=O)Nc2cccc(Cl)c2F)c1,347,2.5,
N#Cc1cc(F)cc(C(=O)Nc2ccon2)c1,> 30000,,
N#Cc1cc(F)cc(C(=O)Nc2nc(C3CC3)cs2)c1,900,1.5,
CC(C)(C)c1cccc(NC(=O)c2cc(F)cc(C#N)c2)c1,> 30000,,
N#Cc1cc(F)cc(C(=O)Nc2cccc(Cl)c2)c1,45,0.6,"Ki [3]: 206 nM; inhibition [4]: inactive; inhibition [5]: inactive; inhibition [6]: inactive; inhibition [7]: inactive; inhibition [8]: inactive; inhibition [9]: inactive; remaining at 0.25 h, 1 µM [10]: 96.8%; remaining at 0.25 h, 1 µM [11]: 18%; PPB (Plasma [12]): 93.7%; PPB (Plasma [13]): 97.1%; Cmax (Plasma [14]): 0.97 µg/mL; Cmax [15]: 1090 ng/mL; Tmax (Plasma [16]): 15 min; Tmax (Brain): 15 min; AUC(0-t) at 4 h [17]: 1200 ng·h/mL; AUC(0-t) at 4 h [18]: 1710 ng·h/mL; Kp [19]: 1.4"
Cc1ccc(NC(=O)c2cc(F)cc(C#N)c2)cc1,> 30000,,
Cc1ccccc1NC(=O)c1cc(F)cc(C#N)c1,> 30000,,
Cc1ccnc(NC(=O)c2cc(F)cc(C#N)c2)c1,> 10000,38.6,
COc1cccc(NC(=O)c2cc(F)cc(C#N)c2)c1,> 10000,35.5,
CCc1cccc(NC(=O)c2cc(F)cc(C#N)c2)n1,505,1.7,

SMILES,IC50 [1] [nM],%max [2] [%],also measured
N#Cc1cc(F)cc(C(=O)Nc2ccccc2)c1,5440,12.5,
N#Cc1cc(F)cc(C(=O)Nc2cc(Cl)ccc2F)c1,3780,29.8,
N#Cc1cc(F)cc(C(=O)Nc2ccc(Cl)cc2)c1,> 30000,,
COc1ccccc1NC(=O)c1cc(F)cc(C#N)c1,> 30000,,
N#Cc1cc(F)cc(C(=O)NC2C3CC4CC(C3)CC2C4)c1 (stereo unspecified),> 10000,34.7,
COc1cccc(NC(=O)c2cc(F)cc(C#N)c2)n1,1510,17.3,
COc1ccc(NC(=O)c2cc(F)cc(C#N)c2)cc1,> 30000,,
N#Cc1cc(F)cc(C(=O)Nc2cccc(Cl)n2)c1,250,2.2,
N#Cc1cccc(NC(=O)c2cc(F)cc(C#N)c2)c1,489,1.4,
Cc1cccc(NC(=O)c2cc(F)cc(C#N)c2)c1,122,2.1,"Ki [3]: 100 nM; inhibition [4]: inactive; inhibition [5]: inactive; inhibition [6]: inactive; inhibition [7]: inactive; inhibition [8]: inactive; inhibition [9]: inactive; remaining at 0.25 h, 1 µM [10]: 69.7%; remaining at 0.25 h, 1 µM [11]: 19.5%; PPB (Plasma [12]): 95.3%; PPB (Plasma [13]): 98.3%"
N#Cc1cc(F)cc(C(=O)Nc2ccccn2)c1,3010,5.4,
CC(C)(C)c1csc(NC(=O)c2cc(F)cc(C#N)c2)n1,> 10000,29.7,
N#Cc1cc(F)cc(C(=O)Nc2cccnc2)c1,> 30000,,
Cc1cccc(NC(=O)c2cc(F)cc(C#N)c2)n1,65,1.2,"Ki [3]: 157 nM; inhibition [4]: inactive; inhibition [5]: inactive; inhibition [6]: inactive; inhibition [7]: inactive; inhibition [8]: inactive; inhibition [9]: inactive; remaining at 0.25 h, 1 µM [10]: 46.5%; remaining at 0.25 h, 1 µM [11]: 7%; PPB (Plasma [12]): 84%; PPB (Plasma [13]): 89.9%"
Cc1cc(C)nc(NC(=O)c2cc(F)cc(C#N)c2)c1,> 30000,,
N#Cc1cc(F)cc(C(=O)Nc2ccncc2)c1,> 30000,,
N#Cc1cc(F)cc(C(=O)Nc2ccccc2F)c1,> 30000,,
CCc1cccc(NC(=O)c2cc(F)cc(C#N)c2)c1,4940,2.4,
Cc1cccnc1NC(=O)c1cc(F)cc(C#N)c1,> 30000,,
N#Cc1cc(F)cc(C(=O)Nc2cccc(F)c2)c1,2160,22.1,
N#Cc1cc(F)cc(C(=O)Nc2ccc(F)c(Cl)c2)c1,377,43,
Cc1cnc(NC(=O)c2cc(F)cc(C#N)c2)s1,863,17.5,
